Measured values as given in patent US8980914B2, “Therapeutic agent for chronic obstructive pulmonary disease and method for treatment for chronic obstructive pulmonary disease with the same” (Mariposa Health Limited, priority 2003, dated 2015).

Tests used:
[1] = system: airway hyper-responsiveness induced by ozone; assay: Airway hyper-responsiveness model induced by inhalation of ozone in guinea pigs (lung resistance after methacholine); type: in vivo; conditions: test substance 30 mg/kg one hour before ozone inhalation, RLung after methacholine inhalation 5 hours after end of ozone exposure
Experimental: This test was performed so as to evaluate the pharmacological effect of the 7-aminoquinolinone derivatives of the present invention in an airway hyper-responsiveness model induced by inhalation of ozone in guinea pigs. The test procedure will now be described.
Guinea pigs were fasted for 18 hours or more. The animals were administered the test substance (30 mg/kg) and theophylline (100 mg/kg) one hour before ozone inhalation. For the non-stimulation group and the vehicle control group, vehicle (5 mL/kg) was administered similarly.
The animals were put into an acryl-made chamber (29×19×25 cm), subjected to induction of ozone generated by an ozonizer (EUV3-XU; EBARA JITSUGYO CO, LTD.) and exposed for 2 hours. The ozone concentration in the chamber was approximately 3 ppm. It was confirmed every 30 minutes that this concentration was maintained during exposure by an ozone monitor (EG-5000; EBARA JITSUGYO CO, LTD.) (measured value: 2.53 to 3.40 ppm). For the non-stimulation group, the animals were exposed to a mixed gas (oxygen: 95%, carbonic acid gas: 5%) similarly. The ozone concentration at that time was also confirmed similarly (acceptable concentration: 0.01 ppm or less, measured value: 0.00 to 0.01 ppm).
The measurement of airway hyper-responsiveness was performed 5 hours after the end of ozone exposure. The measurement of lung resistance (RLung) was performed according to the method of R. E. Giles et al. in the same manner as in Example 2. That is, the animals were anesthetized with Nembutal (Trade name: 50 mg/kg, i.p., sodium pentobarbital) and subjected to cannulation into esophagus and trachea. The esophagus and trachea cannulas were connected to a respirator (ventilation volume: 6 mL/kg, ventilation frequency: 60 times/min, SN-480-7) and the RLung after inhalation of methacholine (100 μg/mL, for 1.5 minutes) was measured by the respiratory function analyzer (PULMOS-II; M.I.P.S) through a flow sensor (connected to Validyle DF45F (for flow rate) and DP45P (for pressure)). The inhalation of methacholine was performed with an ultrasonic nebuliser (NE-U17; Omron Matsuzaka) connected to the respirator under artificial respiration.
Used RLung represents 10 breaths having a stable value in a range from 1 to 30 breaths after initiation of each measurement for both before inhalation and during methacholine inhalation. The average of the RLung was calculated. The extreme values in RLung that occurred when animal moved during the measurement were excluded from the calculations.
The percentage of increase of RLung was calculated by the following equation. Increase in lung resistance (%)=([RLung after inhalation of methacholine]−[RLung before administration])/[RLung before administration]×100

[2] = Peroxynitrite scavenging activity (oxidation of dihydrorhodamine 123); type: biochemical; conditions: oxidation of dihydrorhodamine 123 by peroxynitrite, phosphate buffer pH 7.4; read-out: 50% Inhibitory concentration on oxidation (IC50)
Experimental: This test was performed by estimating the antioxidative effect of the test substance using peroxynitrite quantitative method as a test system with dihydrorhodamine 123 so as to confirm the ability of the 7-aminoquinolinone derivatives of the present invention to scavenge peroxynitrite. This is a method described in NITRIC OXIDE: Biology and Chemistry Vol. 1, 145-157, 1997.
The test substance was weighted in an amount of approximately 10 mg, dissolved in a 10% Tween 80 solution and adjusted to 5×10^−3 mol/L. Then, the solution was diluted with 0.1 mol/L phosphate buffer (pH=7.4) to 5×10^−4 mol/L. The diluent was further diluted stepwise with a phosphate buffer containing 1% Tween 80 to obtain substance solution. The preparation was conducted before use. The final concentration of the test substance was adjusted to 3×10^−6, 1×10^−6, 3×10^−7, 1×10^−7, and 3×10^−8 mol/L, respectively.
To 20 μL of peroxynitrite solution (manufactured by DOJINDO LABORATORIES), 1980 μL of 0.1 mol/L sodium hydroxide was added and the mixture was diluted 100 times. The absorbance of the maximum absorption wavelength near 300 nm was measured using a UV-visible spectrophotometer and the concentration was calculated according to the following equation. Concentration(mmol/L)=(absorbance/1670)×100×1000
Based on the concentration calculated in the above section, dilution with a 0.1 mol/L sodium hydroxide solution was conducted and adjusted to 10 mmol/L. 990 μL of a 0.1 mol/L sodium hydroxide solution was taken into a 1.5 mL-Eppen tube. To the Eppen tube, 10 μL of a solution adjusted to 10 mmol/L was added to prepare a 100 μmol/L solution.
Dihydrorhodamine 123 was dissolved into 1.155 mL of dimethylsulfoxide, and adjusted to the concentration of 25 mmol/L. This solution was dispensed into 20 μL aliquots and then the aliquots were stored in a biomedical freezer (about −20° C.) and used as a stock solution.
To 490 μL of 0.02% Tween 80 containing 0.1 mol/L phosphate buffer, 10 μL of 25 mmol/L of a thawed dihydrorhodamine 123 stock solution was added to make 500 μmol/L. The prepared solution was diluted with 0.1 mol/L phosphate buffer (pH=7.4) 1000 times to prepare 500 nmol/L of a dihydrorhodamine 123 solution.
(1) To a 3.5 mL brown vial containing a stirring bar, 1470 μL of a 500 nmol/L dihydrorhodamine 123 solution and then 15 μL of the test substance solution was added. For the blank and control groups, 15 μL of 0.1 mol/L phosphate buffer containing 1% Tween 80, as a solvent for the test substance solution, was added. After the addition, the mixture was stirred with a stirrer for 30 minutes.
15 μL of a 100 μmol/L peroxynitrite solution was added while stirring. For the blank group, 15 μL of a 0.1 mol/L sodium hydroxide solution was added. After stirring for 15 minutes, fluorescence intensity was measured.
Fluorescence intensity of the reaction solution was measured using a spectrophotofluorometer under the following measuring conditions: excitation wavelength, 500 nm; emission wavelength, 536 nm; measuring times, one; response, 1 sec; photomultiplier tube voltage, Low; band width at excitation side, 10 nm; bandwidth at emission side, 10 nm.
The oxidation rate of dihydrorhodamine 123 when adding the test substance was calculated, taking the oxidation rate of dihydrorhodamine 123 for control as 100, according to the following equation: Oxidation rate (%) of dihydrorhodamine 123=(measured value for each group−measured value for blank)/(measured for control−measured value for blank)×100 Calculation of Oxidation Inhibition Concentration (IC50)
50% oxidation concentration, that is 50% oxidation inhibition concentration (IC50) was calculated by giving a straight line from two points surrounding 50% oxidation rate.

[3] = system: airway hyper-responsiveness induced by peroxynitrite; assay: Airway hyper-responsiveness model induced by exposure of peroxynitrite in guinea pigs (lung resistance after histamine); type: in vivo; conditions: 30 mg/kg orally one hour before peroxynitrite, histamine 32 μg/kg i.v. on 5-day, control group 759, non-stimulation group 382
Experimental: This test was performed so as to investigate the pharmacological effect of the 7-aminoquinolinone derivative of the present invention on an airway hyper-responsiveness model induced by exposure of peroxynitrite in guinea pigs. The test procedure will now be described.
Guinea pigs were fasted for 18 hours or more. The animals were administrated the test substance (30 mg/kg) orally one hour before exposure of peroxynitrite and the neck was dissected under ether anesthesia, and then the trachea was exposed. 0.1 mL of 1 mmol/L peroxynitrite was administered intratracheally into pulmonary side by pushing with air and, after the administration, the incision was sutured and disinfected.
The measurement of airway hyper-responsiveness was performed on 5-day, taking the day of model preparation 0-day. Guinea pigs were fasted for 18 hours or more. The measurement of lung resistance; (RLung) was performed according to the method of R. E. Giles et al. (R. E. Giles, M. P. Finkel and J. Mazurowski: Use of an Analog On-Line Computer for the Evaluation of Pulmonary Resistance and Dynamic Compliance in the Anesthetized Dog. Arch. Int. Pharmacodyn. 194, 213-222 (1971)). That is, the animals were anesthetized with Nembutal (Trade name: 40 mg/kg, i.v., sodium pentobarbital) and subjected to cannulation into esophagus, trachea and jugular veins (for administration of histamine). The esophagus and trachea cannulas were connected to an artificial respirator (ventilation volume: 6 mL/kg, ventilation frequency: 60 times/min, SN-480-7) and the Rlung was measured after intravenous administration (dose of 0.1 mL/kg) of physiological saline solution and histamine (32 μg/kg) using a total plethysmograph system via flow sensor, connected to Validyne DF45F (for flow rate) and DP45P (for pressure). RLung before administration was determined by averaging values of any 3 out of 20 breaths, RLung after administration of physiological saline solution was determined by averaging values of any 3 out of 5 breaths, and RLung after administration of histamine was determined by averaging values of the following 3 breaths; 1) showing the maximum lung resistance, 2) taken just before and 3) taken just after the one with the maximum lung resistance, out less than 20 breaths. (The extreme values in RLung that occurred when animal moved during the measurement were excluded from the calculations.)
The percentage of increase in lung resistance was calculated by the following equation. Increase in lung resistance (%)=([RLung after administration of histamine]−[RLung before administration])/[RLung before administration]×100

Row | Structure (SMILES) | Increase in lung resistance (%) [1] | IC50 [2] | Increase in lung resistance (%) [3]
1 | CCCCCCOc1c(O)c2ccc(NC(=O)C=Cc3cc(OC)c(O)c(OC)c3)cc2n(C)c1=O [Compound 549] | 28% | 800 nM | 423%
2 | CCCCCCOc1c(O)c(=O)n(C)c2cc(NC(=O)C=Cc3cc(OC)c(O)c(OC)c3)ccc12 [Compound 556] | 25% | 890 nM | 426%
3 | CCCCCCOc1c(O)c(=O)n(C)c2cc(NC(C)=O)ccc12 [Compound 401] | 25% | 1010 nM | 420%
4 | CCCCCCCCOc1c(O)c2ccc(N)cc2n(C)c1=O [Compound 55] | 26% | 960 nM | 425%
5 | CCCCCCNc1ccc2c(O)c(OC)c(=O)[nH]c2c1 [Compound 204] | 37% | 890 nM | 439%
6 | C=CCOc1c(O)c2ccc(N)cc2n(C)c1=O [Compound 56] | 30% | 1050 nM | 434%
